In patent US20070203211A1, “Drug for preventing or treating angiogenic eye diseases” (SANKYO COMPANY, LIMITED, priority 2003, published 2007):

Tests used:
C57BL/6 mice = experiment: oxygen-induced retinopathy in mice, retinopathy score by ADPase staining of retinal flat specimens; format: in vivo; conditions: score as percentage of solvent control (100%), n = 9 to 16
Procedure: Seven-day-old C57BL/6 mice were housed for five days with their mother in roughly 75% oxygen. Subsequently, the animals were housed for another five days after returning to ordinary air. While being housed in air, the animals were administered a test compound once a day. Following completion of administration, the animals were sacrificed by dislocation of the cervical vertebra followed by excision of the eyeball. The eyeballs were fixed in neutral formalin. After preparing flat specimens of the retina, vascular endothelium was stained by ADPase staining (Lutty, et al., Arch. Ophthalmol. 1992; 100: 267). After staining, retinopathy was scored in a blind study, and retinopathy was assessed for each of 12 retinal sections obtained by dividing the entire circumference of the retina into 12 equal sections centering about the papilla of the optic nerve. Assessments were made by scoring either the presence of retinopathy (score: 1) or the absence of retinopathy (score: 0), and determining the retinopathy score for each specimen based on the total score of the 12 sections. The score of each test compound was calculated as a percentage based on assigning a value of 100% for the score following administration of solvent. The test compounds consisted of (5-methyl-2-oxo-1,3-dioxolen-4-yl)methyl 4-(1-hydroxy-1-methylethyl)-2-propyl-1-[2′-(1H-tetrazol-5-yl)biphenyl-4-ylmethyl]imidazole-5-carboxylate (hereinafter, indicated as “Compound A”) for the medicament of the present invention, Candesartan cilexetil and Losartan.

[1] = test system: New Zealand White rabbits; experiment: VEGF pellet-induced corneal neovascularization in rabbits; format: in vivo; conditions: dosage 10 mg/kg once a day for one week; AA = neovascularization density score (0 to 5) x length (mm); solvent control 0.72 ± 0.15; n = 3
Description: Male New Zealand White rabbits were used in this example. The animals were anesthetized by administering suitable amounts of animal […] (registered trade mark) 50 and Celactal (registered trade mark). Moreover, the eyes were topically anesthetized by dropping 0.4% Benoxil (registered trade mark) opthalmic solution. The procedure was basically preformed in accordance with the method of Ziche, et al. (J. Clin. Invest. 1997 99: 2625-2634), and consisted of creating a pocket in the center of the cornea with a razor, and inserting a hydron pellet containing VEGF produced in advance into the pocket. A solution of the test compound was administered once a day for one week. Corneal neovascularization was photographed on the day after final administration of the test compound. Neovascularization was evaluated using the density and length of newly formed vessels as an index. Namely, neovascularization density was scored from 0 to 5 by referring to standard photographs corresponding to each score. The length of neovascularization was calculated by measuring the length (mm) of vessels uniformly extending from the corneal limbus towards the pellet based on a scale bar on the photograph. The value obtained by multiplying the neovascularization density score by the neovascularization length (mm) was used to indicate angiogenic activity (AA).

[2] = dosage 1 mg/kg once a day for five days
[3] = dosage 3 mg/kg once a day for five days
[4] = dosage 10 mg/kg once a day for five days
[5] = dosage 30 mg/kg once a day for five days

## CCCc1nc(C(C)(C)O)c(C(=O)OCc2oc(=O)oc2C)n1Cc1ccc(-c2ccccc2-c2nnn[nH]2)cc1 [Compound A, (5-methyl-2-oxo-1,3-dioxolen-4-yl)methyl 4-(1-hydroxy-1-methylethyl)-2-propyl-1-[2′-(1H-tetrazol-5-yl)biphenyl-4-ylmethyl]imidazole-5-carboxylate]
C57BL/6 mice; [2]
  Retinopathy (%): 57 ± 13%
C57BL/6 mice; [3]
  Retinopathy (%): 40 ± 9%
C57BL/6 mice; [4]
  Retinopathy (%): 31 ± 7%
C57BL/6 mice; [5]
  Retinopathy (%): 32 ± 11%
[1]
  Angiogenic Activity (AA): 0.14 ± 0.11

## CCCCc1nc(Cl)c(CO)n1Cc1ccc(-c2ccccc2-c2nn[nH]n2)cc1 [Losartan]
C57BL/6 mice; [3]
  Retinopathy (%): 90 ± 11%
C57BL/6 mice; [4]
  Retinopathy (%): 54 ± 10%
C57BL/6 mice; [5]
  Retinopathy (%): 42 ± 9%
C57BL/6 mice; dosage 100 mg/kg once a day for five days
  Retinopathy (%): 40 ± 11%

## CCOc1nc2cccc(C(=O)OC(C)OC(=O)OC3CCCCC3)c2n1Cc1ccc(-c2ccccc2-c2nnn[nH]2)cc1 (stereo not shown) [Candesartan cilexetil]
C57BL/6 mice; [2]
  Retinopathy (%): 84 ± 14%
C57BL/6 mice; [3]
  Retinopathy (%): 70 ± 12%
C57BL/6 mice; [4]
  Retinopathy (%): 56 ± 11%
C57BL/6 mice; [5]
  Retinopathy (%): 58 ± 11%
